According to patent US20060258745A1, “Deramciclane-fumarate tablets” (EGIS GYOGYSZERGYAR RT., priority 2003, published 2006):

Key:
[1] = Crushing strength of compressed pure deramciclane-fumarate powder; format: physicochemical; details: 300 mg powder, die cavity of 10 mm diameter, eccentric press, compression force 5-40 kN
From the text: Due to the weak cohesion characteristics of deramciclane-fumarate on compression of the particles of the active ingredient acceptable tablet strength can not be obtained.

Water solubility = format: physicochemical

crushing strength of the tablets [1]: ≤ 10 N
water solubility (Water solubility): low water solubility
SMILES: CN(C)CCOC1(c2ccccc2)CC2CCC1(C)C2(C)C.O=C(O)/C=C/C(=O)O [deramciclane-fumarate, (1R,2S,4R)-(−)-2-dimethylaminoethoxy-2-phenyl-1,7,7-trimethyl-bicyclo[2.2.1]heptane-2-(E)-butenedioate (1:1)]
